Measured values published in ChEMBL document CHEMBL1201862, “PubChem BioAssay data set” (2004).
The source made the active and inactive calls.

Experiments:
[1] = HepG2 cell cytotoxicity, dose response, cytotoxicity control for Shn3 inhibitor project, CellTiter-Glo, cherry-picked (AID 624134); type: functional, cell-based
[2] = tested on: CHO; assay: cytotoxicity in TLR9-MyD88 CHO cells, dose response, cytotoxicity control for TLR9-MyD88 binding inhibitor project, cell-based, luminescence (AID 588339); type: functional, hamster; conditions: Cricetulus griseus;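 also: CHO cells stably coexpressing TLR9 and MyD88 fusions from primary screen; compound exposure lasted 48 hours before viability readout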
[3] = microbe, parasite or virus in culture; type: functional; conditions: Mycobacterium tuberculosis
[4] = control 3'UTR Renilla luciferase suppression, dose response, counter-screen for Shn3 inhibitor project, cell-based, Clone20-Shn3RL, cherry-picked (AID 624133); type: functional
[5] = target: Sphingosine 1-phosphate receptor 4 (Homo sapiens, UniProt O95977); assay: Fluorescence dose response cell-based high throughput screening assay for antagonists of the Sphingosine 1-Phosphate Receptor 4 (S1P4). [Related pubchem assays: 1524 (Confirmation in triplicates.), 1510 (Primary screen.)]; type: functional
[6] = target: DNA damage-inducible transcript 3 protein (Mus musculus, UniProt P35639); type: functional, Cricetulus griseus
[7] = target: Beta Lactamase (Pseudomonas aeruginosa, UniProt Q932Y6); assay: beta-lactamase reporter inhibitor potency, dose response, artefact control for TLR9-MyD88 binding inhibitor project, BLA reporter cells, FRET fluorescence (AID 588341); type: cell-based;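 also: cell based assay in CHO-K1 cells stably expressing beta-lactamase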
[8] = target: T1, Heat shock factor protein 1 (Mus musculus, UniProt P38532); assay: inhibition of MG132-induced HSE-luciferase signal, confirmation, cell-based, NIH3T3, luminescence, dose retest (AID 2382); type: functional;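 also: NIH3T3 fibroblasts with HSF1-driven luciferase reporter stressed by proteasome inhibitor MG132; luminescence from HSF1-driven luciferase expression after 8 hours of MG132 stress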
T1 sequence (P38532 whole entry): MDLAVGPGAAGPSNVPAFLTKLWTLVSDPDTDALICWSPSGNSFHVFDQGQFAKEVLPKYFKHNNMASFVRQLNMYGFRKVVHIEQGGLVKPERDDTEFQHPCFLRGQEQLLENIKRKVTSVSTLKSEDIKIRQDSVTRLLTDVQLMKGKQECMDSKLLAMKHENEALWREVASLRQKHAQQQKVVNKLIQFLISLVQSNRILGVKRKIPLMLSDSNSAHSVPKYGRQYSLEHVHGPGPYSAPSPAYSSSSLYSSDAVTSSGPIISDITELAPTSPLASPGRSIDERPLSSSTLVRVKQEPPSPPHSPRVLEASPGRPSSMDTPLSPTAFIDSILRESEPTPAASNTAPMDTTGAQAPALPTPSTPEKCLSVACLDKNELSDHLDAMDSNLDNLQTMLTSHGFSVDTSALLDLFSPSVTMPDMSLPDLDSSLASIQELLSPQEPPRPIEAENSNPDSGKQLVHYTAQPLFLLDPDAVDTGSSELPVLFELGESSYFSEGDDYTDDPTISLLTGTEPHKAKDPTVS

[9] = cytotoxicity in KRAS-transformed pancreatic duct cells, primary screen, cell-based, fluorescence, HTS (AID 431); type: functional; conditions: Homo sapiens;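 also: cell line used: HPDE-C7K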
[10] = Shn3 3'UTR reporter inhibitors, dose response, cell-based, Clone20 osteoblasts, firefly luciferase, cherry-picked (AID 624132); type: functional;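 also: firefly luciferase luminescence from reporter carrying the Shn3 3'UTR in osteoblasts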
[11] = inhibitors of intracellular T. cruzi replication, confirmation, NIH3T3 host cells, beta-gal luminescence (AID 2044); type: functional, cell-based;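 also: intracellular parasites grown in NIH/3T3 mouse fibroblasts as host cells; luminescent beta-galactosidase reporter signal from transgenic T. cruzi replicating inside host cells; inhibitors lower the luminescence signal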
[12] = target: T2, Replicative DNA helicase DnaB (Mycobacterium tuberculosis, UniProt P9WMR3); assay: DnaB intein splicing inhibitors, dose response, biochemical, cell-free fluorescence (AID 449749); type: functional
T2 sequence (P9WMR3 whole entry): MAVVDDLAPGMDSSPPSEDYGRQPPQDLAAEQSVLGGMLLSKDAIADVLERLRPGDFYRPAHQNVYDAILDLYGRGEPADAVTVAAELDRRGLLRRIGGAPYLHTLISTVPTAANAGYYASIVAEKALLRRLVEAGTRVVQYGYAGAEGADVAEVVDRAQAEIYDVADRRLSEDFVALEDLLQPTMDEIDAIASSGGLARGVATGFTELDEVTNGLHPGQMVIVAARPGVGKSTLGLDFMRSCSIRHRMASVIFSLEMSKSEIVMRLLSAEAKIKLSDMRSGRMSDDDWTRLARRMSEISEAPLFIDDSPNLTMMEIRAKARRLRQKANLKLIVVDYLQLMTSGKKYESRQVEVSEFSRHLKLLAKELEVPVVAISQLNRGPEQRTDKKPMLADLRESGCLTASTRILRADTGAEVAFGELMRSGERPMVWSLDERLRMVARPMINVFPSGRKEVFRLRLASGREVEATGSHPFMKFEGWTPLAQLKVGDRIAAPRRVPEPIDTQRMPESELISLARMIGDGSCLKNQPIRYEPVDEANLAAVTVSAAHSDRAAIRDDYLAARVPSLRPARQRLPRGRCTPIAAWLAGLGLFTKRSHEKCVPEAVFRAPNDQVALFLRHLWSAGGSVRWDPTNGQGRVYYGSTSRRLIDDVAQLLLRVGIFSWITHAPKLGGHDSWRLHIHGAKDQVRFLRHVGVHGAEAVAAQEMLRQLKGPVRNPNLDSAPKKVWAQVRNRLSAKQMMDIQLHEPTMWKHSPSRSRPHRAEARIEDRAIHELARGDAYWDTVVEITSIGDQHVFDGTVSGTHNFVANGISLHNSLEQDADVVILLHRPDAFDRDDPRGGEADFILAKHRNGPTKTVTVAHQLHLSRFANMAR

[13] = target: Sphingosine 1-phosphate receptor 1 (Homo sapiens, UniProt P21453); type: functional;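 also: Tango beta-arrestin reporter U2OS cells stimulated with S1P near its EC80; inhibitor potency meaning antagonism of receptor activation by the natural agonist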
[14] = target: T3, Protein RecA (Mycobacterium tuberculosis, UniProt P9WHJ3); assay: Fluorescence Cell-Free Homogeneous Dose Retest to Identify Inhibitors of RecA-Intein Splicing Activity. [Related pubchem assays (depositor defined):AID2097, AID2223, AID489010, AID492950]; type: functional
T3 sequence (P9WHJ3 whole entry): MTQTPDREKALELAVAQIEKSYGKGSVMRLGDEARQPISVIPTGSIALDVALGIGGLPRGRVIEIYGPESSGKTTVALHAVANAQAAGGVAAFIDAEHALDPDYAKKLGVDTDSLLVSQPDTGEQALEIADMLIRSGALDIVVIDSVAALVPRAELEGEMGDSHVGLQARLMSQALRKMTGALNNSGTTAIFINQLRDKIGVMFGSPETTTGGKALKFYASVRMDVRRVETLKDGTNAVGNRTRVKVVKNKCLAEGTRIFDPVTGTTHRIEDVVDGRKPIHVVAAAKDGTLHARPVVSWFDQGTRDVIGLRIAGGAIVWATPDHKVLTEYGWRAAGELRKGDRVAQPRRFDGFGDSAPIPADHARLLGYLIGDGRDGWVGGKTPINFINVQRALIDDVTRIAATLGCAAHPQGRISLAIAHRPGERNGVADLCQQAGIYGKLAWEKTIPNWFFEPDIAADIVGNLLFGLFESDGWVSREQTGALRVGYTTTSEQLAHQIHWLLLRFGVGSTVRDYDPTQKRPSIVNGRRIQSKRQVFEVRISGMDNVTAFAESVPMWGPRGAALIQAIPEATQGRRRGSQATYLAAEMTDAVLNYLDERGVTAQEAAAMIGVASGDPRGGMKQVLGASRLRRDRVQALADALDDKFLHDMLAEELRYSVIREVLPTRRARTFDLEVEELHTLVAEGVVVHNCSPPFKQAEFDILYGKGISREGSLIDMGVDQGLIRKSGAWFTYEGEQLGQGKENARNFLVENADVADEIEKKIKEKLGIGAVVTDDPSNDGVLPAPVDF

[15] = cytotoxicity in HPDE-C7 cells, cell-based, fluorescence, HTS (AID 430); type: functional; conditions: Homo sapiens
[16] = cytotoxicity toward NIH3T3 fibroblasts, dose response, counter-screen, cell-based, ATP luminescence, mouse fibroblasts (AID 2010); type: functional;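 also: cells exposed to compound for about 90 hours before reading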
[17] = half-maximal inhibitory concentration for glucagon-like peptide-1 release, STC-1 cell line, dose-response (AID 1117345); type: functional, cell-based
[18] = tested on: HEK293; assay: HEK cell cytotoxicity by LDH release, dose response, cytotoxicity control for IDE activator project, fluorescence, HEK cells (AID 588440); type: functional, cell-based; conditions: Homo sapiens;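 also: cytotoxicity by LDH release measuring loss of membrane integrity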
[19] = Glucagon-like peptide 1 release potency, NCI-H716 cell line, dose-response, half-maximal inhibitory concentration (AID 1117344); type: functional, cell-based
[20] = target: T4, Insulin-degrading enzyme (Homo sapiens, UniProt P14735); assay: activators of recombinant IDE enzyme, dose response, counter-screen for IDE activator project, biochemical, fluorescence polarization (AID 588681)
T4 sequence (P14735 whole entry): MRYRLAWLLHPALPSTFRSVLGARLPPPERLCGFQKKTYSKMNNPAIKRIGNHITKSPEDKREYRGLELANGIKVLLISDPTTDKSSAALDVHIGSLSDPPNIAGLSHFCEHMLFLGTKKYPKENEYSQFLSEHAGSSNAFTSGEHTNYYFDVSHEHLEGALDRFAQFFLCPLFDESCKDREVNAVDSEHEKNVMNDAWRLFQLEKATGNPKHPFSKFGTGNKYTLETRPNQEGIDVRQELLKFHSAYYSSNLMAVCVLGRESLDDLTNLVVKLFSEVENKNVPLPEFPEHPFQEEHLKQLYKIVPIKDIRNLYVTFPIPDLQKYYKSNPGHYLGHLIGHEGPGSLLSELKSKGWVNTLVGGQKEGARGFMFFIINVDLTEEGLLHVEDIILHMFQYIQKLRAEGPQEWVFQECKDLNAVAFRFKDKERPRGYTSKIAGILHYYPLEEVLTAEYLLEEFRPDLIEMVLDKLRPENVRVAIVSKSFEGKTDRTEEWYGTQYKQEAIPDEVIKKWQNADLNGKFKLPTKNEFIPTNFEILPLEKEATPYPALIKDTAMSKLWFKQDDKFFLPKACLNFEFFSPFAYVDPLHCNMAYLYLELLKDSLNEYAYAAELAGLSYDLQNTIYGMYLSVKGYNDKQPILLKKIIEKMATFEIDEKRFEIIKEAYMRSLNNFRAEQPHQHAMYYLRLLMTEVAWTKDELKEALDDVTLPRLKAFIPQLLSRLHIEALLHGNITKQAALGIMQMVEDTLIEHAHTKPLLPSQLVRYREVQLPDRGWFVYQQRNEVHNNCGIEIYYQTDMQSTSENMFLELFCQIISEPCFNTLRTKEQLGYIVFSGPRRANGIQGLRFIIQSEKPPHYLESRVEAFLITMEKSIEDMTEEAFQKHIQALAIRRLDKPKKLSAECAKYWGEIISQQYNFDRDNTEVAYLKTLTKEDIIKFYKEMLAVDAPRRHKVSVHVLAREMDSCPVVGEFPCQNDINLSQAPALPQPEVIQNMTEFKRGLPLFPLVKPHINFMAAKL

[21] = tested on: INS1; assay: beta cell apoptosis inhibitors, cytokine rescue, dose response, luminescence, retest (AID 449756); type: functional, cell-based; conditions: Rattus norvegicus;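 also: cell death triggered by IL-1 beta plus TNF-alpha plus IFN-gamma mixture; protective hits raise ATP signal compared with cytokine alone wells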
[22] = target: T5, Bcl-2-related protein A1 (Mus musculus, UniProt Q07440); type: functional;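 also: confirmatory dose–response counterscreen on Bfl-1, used to check hits from a UBC13 polyubiquitin inhibitor campaign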
T5 sequence (Q07440 whole entry): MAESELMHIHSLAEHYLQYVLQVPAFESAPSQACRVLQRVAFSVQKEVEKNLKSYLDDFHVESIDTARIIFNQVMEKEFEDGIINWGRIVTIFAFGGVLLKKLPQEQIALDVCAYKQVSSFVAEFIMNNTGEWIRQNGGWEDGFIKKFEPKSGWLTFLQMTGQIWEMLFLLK

[23] = target: T6, Ubiquitin-conjugating enzyme E2 N (Homo sapiens, UniProt P61088); type: functional
T6 sequence (P61088 whole entry): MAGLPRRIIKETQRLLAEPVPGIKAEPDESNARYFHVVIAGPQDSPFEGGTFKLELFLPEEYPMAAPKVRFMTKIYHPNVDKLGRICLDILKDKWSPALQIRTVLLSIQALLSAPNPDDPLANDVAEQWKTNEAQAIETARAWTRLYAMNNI

[24] = target: Large T antigen (Simian virus 40, UniProt P03070); type: functional, Betapolyomavirus macacae;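 also: Confirmatory-stage PubChem screen for compounds that inhibit SV40 T antigen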
[25] = tested on: HEK293; assay: optical interference in Abeta FP readout, dose response, artefact control for IDE activator project, biochemical, fluorescence polarization (AID 588442); type: functional, cell-based; conditions: Homo sapiens
[26] = target: T6, Ubiquitin-conjugating enzyme E2 N; type: functional; remark: listed apart in the source
[27] = target: T4, Insulin-degrading enzyme; assay: activators of endogenous IDE in HEK cells, dose response, cell-based, fluorescence polarization (AID 588439); type: functional
[28] = HeLa 2N DNA content increase, dose response, cell-based, IC50 (AID 1117349); type: functional
[29] = target: Heat shock protein HSP 90-alpha (Homo sapiens, UniProt P07900); type: functional, organism-based
[30] = target: Apoptotic protease-activating factor 1 (Homo sapiens, UniProt O14727); type: functional
[31] = HeLa 4N DNA content increase, dose response, cell-based, IC50 (AID 1117351); type: functional
[32] = target: Dual specificity tyrosine-phosphorylation-regulated kinase 1A (Rattus norvegicus, UniProt Q63470); type: biochemical, Homo sapiens

Chain of Apoptotic protease-activating factor 1 (O14727 whole entry): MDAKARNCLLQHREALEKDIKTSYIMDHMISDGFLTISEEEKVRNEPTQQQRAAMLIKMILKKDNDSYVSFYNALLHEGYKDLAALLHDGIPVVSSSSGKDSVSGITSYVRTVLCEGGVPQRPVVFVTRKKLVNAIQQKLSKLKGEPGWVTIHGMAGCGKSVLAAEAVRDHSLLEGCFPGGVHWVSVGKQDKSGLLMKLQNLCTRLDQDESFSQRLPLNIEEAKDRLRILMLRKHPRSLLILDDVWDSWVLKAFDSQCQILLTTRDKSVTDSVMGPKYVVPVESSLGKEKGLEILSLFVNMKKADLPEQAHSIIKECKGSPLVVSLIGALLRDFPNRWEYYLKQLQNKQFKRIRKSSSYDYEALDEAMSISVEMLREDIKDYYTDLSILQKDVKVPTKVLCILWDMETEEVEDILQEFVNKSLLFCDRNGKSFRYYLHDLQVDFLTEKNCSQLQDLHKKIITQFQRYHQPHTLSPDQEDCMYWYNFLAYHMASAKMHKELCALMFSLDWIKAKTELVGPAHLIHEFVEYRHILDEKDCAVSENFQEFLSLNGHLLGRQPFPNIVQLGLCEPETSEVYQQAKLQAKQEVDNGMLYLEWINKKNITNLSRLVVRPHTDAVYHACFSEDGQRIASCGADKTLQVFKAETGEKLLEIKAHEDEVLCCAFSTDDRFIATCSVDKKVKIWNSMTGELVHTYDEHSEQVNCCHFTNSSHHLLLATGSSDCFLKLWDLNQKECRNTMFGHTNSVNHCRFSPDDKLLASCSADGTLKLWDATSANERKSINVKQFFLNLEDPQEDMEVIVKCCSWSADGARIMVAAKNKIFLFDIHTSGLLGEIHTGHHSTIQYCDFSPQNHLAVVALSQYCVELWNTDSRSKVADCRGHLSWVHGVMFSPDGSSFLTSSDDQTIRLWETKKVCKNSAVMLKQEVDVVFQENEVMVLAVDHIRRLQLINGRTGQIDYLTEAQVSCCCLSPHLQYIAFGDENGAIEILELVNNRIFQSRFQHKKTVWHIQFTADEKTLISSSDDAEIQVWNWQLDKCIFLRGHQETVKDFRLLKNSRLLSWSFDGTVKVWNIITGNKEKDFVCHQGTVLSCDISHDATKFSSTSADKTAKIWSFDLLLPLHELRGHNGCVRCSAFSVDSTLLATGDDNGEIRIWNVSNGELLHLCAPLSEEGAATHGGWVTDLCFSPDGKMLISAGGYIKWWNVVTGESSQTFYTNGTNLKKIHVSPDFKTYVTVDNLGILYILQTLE
Chain of Sphingosine 1-phosphate receptor 4 (O95977 whole entry): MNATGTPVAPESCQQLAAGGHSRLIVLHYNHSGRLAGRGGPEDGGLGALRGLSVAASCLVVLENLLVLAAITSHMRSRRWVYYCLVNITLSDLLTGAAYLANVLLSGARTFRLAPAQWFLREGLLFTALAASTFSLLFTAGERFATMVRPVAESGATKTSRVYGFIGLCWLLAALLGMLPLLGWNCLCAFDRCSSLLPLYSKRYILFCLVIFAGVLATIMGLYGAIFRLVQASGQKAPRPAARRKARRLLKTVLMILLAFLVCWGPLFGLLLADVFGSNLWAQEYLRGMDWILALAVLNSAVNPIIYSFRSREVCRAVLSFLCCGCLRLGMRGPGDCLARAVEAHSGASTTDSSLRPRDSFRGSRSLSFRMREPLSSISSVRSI
Chain of Beta Lactamase (Q932Y6 whole entry): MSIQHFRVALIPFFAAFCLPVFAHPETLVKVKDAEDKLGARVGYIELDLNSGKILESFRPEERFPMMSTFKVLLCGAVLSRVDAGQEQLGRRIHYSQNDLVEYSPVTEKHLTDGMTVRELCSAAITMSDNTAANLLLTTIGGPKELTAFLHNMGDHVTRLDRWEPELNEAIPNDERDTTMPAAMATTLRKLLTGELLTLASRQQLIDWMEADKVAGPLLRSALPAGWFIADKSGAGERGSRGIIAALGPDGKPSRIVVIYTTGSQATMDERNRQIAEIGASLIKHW
Chain of Large T antigen (P03070 whole entry): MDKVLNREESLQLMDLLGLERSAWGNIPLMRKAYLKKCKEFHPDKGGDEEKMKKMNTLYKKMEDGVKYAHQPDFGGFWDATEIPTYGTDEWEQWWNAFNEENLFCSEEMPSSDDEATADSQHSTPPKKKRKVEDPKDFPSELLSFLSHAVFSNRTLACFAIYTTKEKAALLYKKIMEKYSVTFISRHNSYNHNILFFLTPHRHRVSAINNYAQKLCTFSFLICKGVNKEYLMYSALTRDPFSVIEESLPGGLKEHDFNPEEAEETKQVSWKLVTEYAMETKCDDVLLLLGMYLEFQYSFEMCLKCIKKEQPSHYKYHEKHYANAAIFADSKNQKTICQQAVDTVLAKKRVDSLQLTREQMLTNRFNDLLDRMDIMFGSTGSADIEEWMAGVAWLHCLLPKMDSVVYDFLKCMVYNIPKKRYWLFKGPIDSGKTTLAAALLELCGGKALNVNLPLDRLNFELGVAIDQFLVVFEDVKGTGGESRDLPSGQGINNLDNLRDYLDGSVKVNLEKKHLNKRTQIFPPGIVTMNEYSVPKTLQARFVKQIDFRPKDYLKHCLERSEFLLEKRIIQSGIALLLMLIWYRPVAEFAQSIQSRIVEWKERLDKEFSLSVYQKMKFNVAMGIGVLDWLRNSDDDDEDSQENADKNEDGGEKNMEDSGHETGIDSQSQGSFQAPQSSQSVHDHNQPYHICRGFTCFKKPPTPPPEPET
Chain of Sphingosine 1-phosphate receptor 1 (P21453 whole entry): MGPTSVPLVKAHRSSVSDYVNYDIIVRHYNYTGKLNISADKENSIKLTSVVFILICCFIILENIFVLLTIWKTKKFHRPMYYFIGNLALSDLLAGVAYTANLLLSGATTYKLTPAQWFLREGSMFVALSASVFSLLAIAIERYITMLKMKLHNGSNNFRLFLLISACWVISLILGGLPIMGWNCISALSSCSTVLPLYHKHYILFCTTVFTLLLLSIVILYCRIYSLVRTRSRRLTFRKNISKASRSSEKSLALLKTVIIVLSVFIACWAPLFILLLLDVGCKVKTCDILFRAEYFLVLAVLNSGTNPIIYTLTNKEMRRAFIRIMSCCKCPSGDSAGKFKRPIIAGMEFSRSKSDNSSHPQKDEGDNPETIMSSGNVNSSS
Chain of DNA damage-inducible transcript 3 protein (P35639 whole entry): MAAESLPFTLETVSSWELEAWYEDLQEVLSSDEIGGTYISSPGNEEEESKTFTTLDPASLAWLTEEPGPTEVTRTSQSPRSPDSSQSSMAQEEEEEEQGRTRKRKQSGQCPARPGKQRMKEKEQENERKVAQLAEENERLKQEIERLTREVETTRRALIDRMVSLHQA

Compound: CS(=O)(=O)c1nc(-c2ccccc2)cc(C(F)(F)F)n1
- AC50 [1]: 16 µM (active)
- IC50 [2]: 3.23 µM (active)
- CC50 [3]: 30.7 µM (active)
- AC50 [4]: 7.07 µM (active)
- IC50 [5]: 1.09 µM (active)
- Absolute IC50 (CHOP) [6]: 10 µM
- IC50 [7]: 29.1 µM (inactive)
- EC50 [8]: 8.84 µM (inconclusive)
- EC50 [9]: 4.8 µM (active)
- AC50 [10]: 1.53 µM (active)
- EC50 [11]: 2.21 µM (active)
- AC50 [12]: 4.91 µM (active)
- IC50 [13]: 16.7 µM (not active)
- EC50 [14]: 5.53 µM (active)
- EC50 [15]: 4.36 µM (active)
- EC50 [16]: 2.55 µM (active)

Compound: CCCCCCCCCCCCCCCC[N+](C)(C)CCN(Cc1ccc(OC)cc1)c1ncccn1 [THONZONIUM BROMIDE]
- IC50 [17]: > 40 µM (inactive)
- IC50 [18]: 5.21 µM (active)
- IC50 [19]: 17.8 µM (inactive)
- EC50 [20]: 53.3 µM (inactive)
- AC50 [21]: 2.54 µM (active)
- IC50 [22]: 6.44 µM (active)
- IC50 [23]: 2.86 µM (active)
- IC50 [24]: 15.4 µM (active)
- EC50 [25]: > 55.9 µM (inactive)
- IC50 [26]: 2.99 µM (active)
- EC50 [27]: > 54.7 µM (inactive)
- IC50 [28]: > 10 µM (inactive)
- AC50 [29]: 6.06 µM (active)
- IC50 [30]: 8.37 µM (active)
- IC50 [31]: > 10 µM (inactive)
- AC50 [32]: 9.42 µM (active)
